Key:
[1] = molecular target: T1, B. anthracis lumazine synthase (BaLS) (Bacillus anthracis, UniProt Q81MB5); assay: biochemical; type: binding; settings: for Binding enthalpy ΔH / Free energy of binding ΔG / No. of sites n / TΔS: pH 7
[2] = molecular target: T1, B. anthracis lumazine synthase (BaLS); assay: biochemical; settings: for Mechanism: pH 7
[3] = molecular target: LS from M. tuberculosis (MtLS); settings: read-out: Dissociation constant Kd; cited from earlier work
C. albicans LS (CaLS) = settings: read-out: Dissociation constant Kd; cited from earlier work

T1 sequence (Q81MB5 whole entry, looked up): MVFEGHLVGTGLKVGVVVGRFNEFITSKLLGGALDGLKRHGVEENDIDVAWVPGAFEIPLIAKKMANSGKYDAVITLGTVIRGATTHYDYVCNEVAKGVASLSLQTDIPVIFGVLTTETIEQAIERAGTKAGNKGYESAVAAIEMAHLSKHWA

Compound | Kd [1] [nM] | Binding enthalpy ΔH [1] [kcal/mol] | Free energy of binding ΔG [1] [kcal/mol] | No. of sites n [1] | TΔS [1] [kcal/mol] | Ki [2] [nM] | increase of the Ki value in comparison to JC33 [2] | Mechanism [2] | Kis ([2]; pH 7.0) [µM] | Ks ([2]; pH 7.0) [µM] | kcat ([2]; pH 7.0) [s⁻¹] | k′cat ([2]; pH 7.0) [min⁻¹] | Kd [3] [nM] | Kd (C. albicans LS (CaLS)) [nM]
O=c1[nH]c(Cl)c(CCCCCP(=O)(O)O)c(=O)[nH]1 [JC72, 5-(6-chloro-2,4-dioxo-1,2,3,4-tetrahydropyrimidine-5-yl)-n-pentyl 1-phosphonate] | 3940 ± 10 | -5.29 ± 0.8 | -7.49 ± 0.01 | 0.98 ± 0.12 | 2.20 ± 0.79 | 430 | approximately 20 fold | Partial | 9.5 ± 3.5 | 8.5 ± 0.5 | 0.01 ± 0.00017 | 0.28 ± 0.09 |  | 
O=c1[nH]c(Cl)c(CCCCOP(=O)(O)O)c(=O)[nH]1 [JC33, 4-(6-Chloro-2,4-dioxo-1,2,3,4-tetrahydropyrimidine-5-yl)-n-butyl 1-phosphate] | 1750 ± 40 | -7.50 ± 0.07 | -7.98 ± 0.02 | 0.98 ± 0.04 | 0.47 ± 0.07 | 23 |  | Competitive |  | 8.0 ± 0.5 | 0.01 ± 0.00017 |  | 720 ± 20 | 150 ± 40
